The target in assay [1] is T1, E2C/H547A hDAT (C90A/C306A/H547A) (Homo sapiens, UniProt Q01959, C306A/C90A/H547A).
T1 construct: expressed in transfected cells; host or cells: HEK293 cells, transient, pcDNA3.1+
T1 sequence (Q01959 1-620 C90A/C306A/H547A): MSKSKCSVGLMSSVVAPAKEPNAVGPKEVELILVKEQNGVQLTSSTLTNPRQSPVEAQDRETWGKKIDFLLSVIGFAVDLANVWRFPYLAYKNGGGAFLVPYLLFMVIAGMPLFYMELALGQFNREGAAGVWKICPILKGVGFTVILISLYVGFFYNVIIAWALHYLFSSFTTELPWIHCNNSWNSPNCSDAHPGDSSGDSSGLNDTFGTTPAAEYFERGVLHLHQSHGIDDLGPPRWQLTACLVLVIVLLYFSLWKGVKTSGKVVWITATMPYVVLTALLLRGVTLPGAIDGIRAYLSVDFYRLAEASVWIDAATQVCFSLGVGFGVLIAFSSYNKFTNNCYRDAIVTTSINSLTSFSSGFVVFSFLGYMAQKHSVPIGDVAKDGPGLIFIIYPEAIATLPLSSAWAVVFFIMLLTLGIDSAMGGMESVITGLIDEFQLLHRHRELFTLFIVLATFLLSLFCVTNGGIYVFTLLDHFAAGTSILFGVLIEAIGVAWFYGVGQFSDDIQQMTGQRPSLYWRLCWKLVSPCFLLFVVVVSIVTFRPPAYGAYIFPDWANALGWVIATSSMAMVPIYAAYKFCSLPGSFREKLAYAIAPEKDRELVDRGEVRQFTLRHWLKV
Description: MTSET assay, [3H]DA uptake in HEK293 cells. In kind it is cell-based. As to conditions: 1 mM MTSET, HEK293, Fig. 8b. An excerpt:
(§1) All mutants on hDAT were generated based on the predictions made using our computational model, as described previously using site-directed mutagenesis based on the wild-type hDAT (WT hDAT) sequence (NCBI, cDNA clone MGC: 164,608 IMAGE: 40,146,999) (Quizon et al. [2016]). The combination of hDAT mutations on Asp206 and His547 (Aspartic acid 206 to leucine and histidine 547 to alanine, D206L/H547A) were predicted to eliminate two hydrogen bonds between Tat and hDAT. In addition, the combination of mutations on Tyr88, Asp206, and His547 (tyrosine88 to phenylalanine and aspartic acid 206 to leucine and histidine 547 to alanine, Y88F/D206L/H547A) were predicted to eliminate three hydrogen bonds from the Tat-hDAT complex. Two extracellular cysteine90 and cysteine306 residues on WT hDAT were mutated to alanine as E2C hDAT (C90A/C306A hDAT), rendering the E2C hDAT MTSET-insensitive background (Pedersen et al. [2014]). A triple mutation of the two cysteine90 and 306 residues to alanine and […] to cysteine on WT hDAT was generated as E2C-I159C hDAT (C90A/C306A/I159C) for MTSET-sensitive construct. A combination of C90A/C306A/H547A was generated as E2C/H547A hDAT for MTSET-insensitive control for H547A. To determine whether H547A-enhanced DA transport is mediated by changing transporter conformation, two combinations of C90A/C306A/I159C/H547A and C90A/C306A/I159A/H547A were generated as E2C-I159C/H547A and E2C-I159A/H547A for positive and negative controls for MTSET sensitive background, respectively. Synthetic cDNA encoding hDAT subcloned into pcDNA3.1+ (provided by Dr. Haley E Melikian, University of Massachusetts) was used as a template to generate mutants using site-directed mutagenesis performed by GENEWIZ (South Plainfield, NJ). DNA sequencing was also performed by GENEWIZ to confirm the sequences of the mutant constructs. Plasmid DNA were propagated and purified using the Qiagen Hi-speed maxi prep plasmid DNA isolation kit (Qiagen, Valencia, CA, USA).
(§2) This assay was performed based on the previous report with minor modifications (Loland et al. [2004], [2008]). First, we generated five WT hDAT based plasmid construct for MTSET-insensitive or sensitive background as we described above. HEK293 cells were grown in poly-d-lysine coated plates at a density of 1 × 10^5 cells/cm^2 were transfected with different E2C- associated hDAT background constructs: E2C hDAT, E2C-I159C hDAT, E2C/H547A hDAT, E2C-I159C/H547A or E2C-I159A/H547A. Twenty-four hours after the transfection, cells were washed twice with 1× KRH buffer, and preincubated with or without the presence of 10 µM nomifensine (for non-specific uptake) and MTSET for 10 min at room temperature. MTSET at 1 mM final concentration was chosen based on a pilot study on optimizing MTSET concentrations (0.1, 0.5 or 1.0 mM). […] Because MTSET is easily hydrolyzed in solution, the amount needed for a 10 × stock was weighed out and dissolved in 1 × KRH buffer just right before adding to the assigned wells, for a 10-fold dilution (final concentration of 1 mM in final volume of 250 µl). […] Cells were immediately washed twice with ice-cold 1 × KRH buffer to terminate the reaction and were lysed rapidly with the addition of 1 % SDS. Cell lysates were collected after incubation for 1 h at room temperature and radioactivity was determined the next day.

Assay [2] concerns the target T2, E2C-I159C/H547A (C90A/C306A/I159C/H547A) (Homo sapiens, UniProt Q01959, C306A/C90A/H547A/I159C).
T2 construct: expressed in transfected cells; host or cells: HEK293 cells, transient, pcDNA3.1+
T2 sequence (Q01959 1-620 C90A/I159C/C306A/H547A): T1 sequence (Q01959 1-620 C90A/C306A/H547A) with I159C
Description: MTSET assay, [3H]DA uptake in HEK293 cells. The settings on record: 1 mM MTSET. The assay is classed as cell-based.
From the text: as §1, §2

Positions count from the first letter of the chain named.

As for `C[N+](C)(C)CCSS(C)(=O)=O` [MTSET, [2-(trimethylammonium)ethyl]-methanethiosulfonate], the “effect of MTSET on DA uptake” value in assay [1] is on record as “no effect”. Moreover, in assay [2] (Fig. 8b), the “further inhibition of [3H]DA uptake compared to E2C-I159C” value is recorded as 34% and the “inhibition of DA uptake relative to E2C” value is recorded as 65%. Further, the “[3H]DA uptake in the presence of MTSET” value in assay [2] (HEK293, Fig. 8b) is on record as 30.4 ± 3.52.

These data come from paper PMC8329121 (Journal of Neuroimmune Pharmacology, 2021).
